From US12274689B2, “Compound for the management of feline diabetes” (INCREVET, INC., priority 2019, dated 2025)
Marks after values point to notes of the source that are not given here.

Key:
[1] = system: ZDF rats; experiment: plasma glucose in male Zucker Diabetic Fatty rats, daily oral dosing (study 338); type: in vivo; conditions: for plasma glucose levels / plasma glucose levels, Day 21 Δ: male ZDF rats; for plasma glucose levels, Day 21 Δ: change Day 0 to Day 21
[2] = biological target: T1, human SGLT2 (Homo sapiens, UniProt P31639); experiment: selectivity for human SGLT2 compared to human SGLT1
T1 sequence (P31639 1-672): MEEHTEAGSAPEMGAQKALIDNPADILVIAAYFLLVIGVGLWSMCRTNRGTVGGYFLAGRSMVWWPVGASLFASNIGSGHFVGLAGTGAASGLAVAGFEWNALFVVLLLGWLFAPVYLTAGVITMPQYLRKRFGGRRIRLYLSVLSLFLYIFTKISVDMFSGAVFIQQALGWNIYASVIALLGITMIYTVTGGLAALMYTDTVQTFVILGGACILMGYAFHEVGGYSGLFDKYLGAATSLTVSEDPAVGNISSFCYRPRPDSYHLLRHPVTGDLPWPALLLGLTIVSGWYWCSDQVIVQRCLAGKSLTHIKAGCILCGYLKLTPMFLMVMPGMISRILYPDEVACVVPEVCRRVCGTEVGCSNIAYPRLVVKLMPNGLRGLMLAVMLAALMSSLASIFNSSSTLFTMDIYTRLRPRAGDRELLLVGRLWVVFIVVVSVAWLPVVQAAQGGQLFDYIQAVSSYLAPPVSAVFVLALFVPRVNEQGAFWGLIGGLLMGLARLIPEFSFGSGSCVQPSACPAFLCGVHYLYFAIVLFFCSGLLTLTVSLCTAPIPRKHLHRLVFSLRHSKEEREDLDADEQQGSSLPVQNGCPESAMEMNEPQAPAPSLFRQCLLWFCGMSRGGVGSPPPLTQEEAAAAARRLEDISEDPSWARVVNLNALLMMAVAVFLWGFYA

[3] = system: healthy cats; experiment: 21-day high-dose study in healthy cats (study 3); type: in vivo, cat; conditions: 15 mg kg^−1 bid (30 mg kg^−1 day^−1) for 21 days
Source text: All cats regained weight when the dosing ended. Because diabetic cats are often presented as a result of weight loss, the degree of […] would clearly be adverse and incompatible with treatment.

[4] = system: healthy purpose-bred cats; experiment: urinary glucose excretion in healthy cats after capsule dosing (studies 1 and 2); type: in vivo, cat
[5] = system: db/db mice; experiment: non-fasting blood glucose in db/db mice, 28-day oral dosing (study 350); type: in vivo; conditions: for non-fasting blood glucose concentration: n = 8

For OC[C@H]1O[C@@H](c2ccc(Cl)c(Cc3ccc(OCCOC4CC4)cc3)c2)[C@H](O)[C@@H](O)[C@@H]1O [bexagliflozin, (2S,3R,4R,5S,6R)-2-(4-chloro-3-(4-(2-cyclopropoxyethoxy)benzyl)phenyl)-6-(hydroxymethyl)tetrahydro-2H-pyran-3,4,5-triol], the “change in plasma glucose levels” value ([1]; ZDF rats, after 7 days, 0.067 mg kg^−1) was “+2.8%”, the “change in plasma glucose levels” value ([1]; ZDF rats, after 7 days, 0.2 mg kg^−1) was −16.8% and the “change in plasma glucose levels” value ([1]; ZDF rats, after 7 days, 0.67 mg kg^−1) was −17.1%. The “change in plasma glucose levels” value ([1]; ZDF rats, after 7 days, 2.0 mg kg^−1) was −25.3%, the “change in plasma glucose levels” value ([1]; ZDF rats, after 14 days, 0.067 mg kg^−1) was “+9.5%” and the “change in plasma glucose levels” value ([1]; ZDF rats, after 14 days, 0.2 mg kg^−1) was −5.6%. For the same compound, the “change in plasma glucose levels” value ([1]; ZDF rats, after 14 days, 0.67 mg kg^−1) was −8.1%, the “change in plasma glucose levels” value ([1]; ZDF rats, after 14 days, 2.0 mg kg^−1) was −25.1% and the “change in plasma glucose levels” value ([1]; ZDF rats, after 21 days, 0.067 mg kg^−1) was “+15.5%”. For the same compound, the “change in plasma glucose levels” value ([1]; ZDF rats, after 21 days, 0.2 mg kg^−1) was “+4.3%”, the “change in plasma glucose levels” value ([1]; ZDF rats, after 21 days, 0.67 mg kg^−1) was “+1.5%” and the “change in plasma glucose levels” value ([1]; ZDF rats, after 21 days, 2.0 mg kg^−1) was −15.4%. The “blood glucose, level below which it was not reduced” value ([1]; ZDF rats, sole agent, any dose group) was no less than 287 mg/dL, the plasma glucose levels ([1]; 0.067 mg kg^−1 oral once daily, Day 0) was 373.2 ± 29.5 mg/dL and the plasma glucose levels ([1]; 0.067 mg kg^−1 oral once daily, Day 7) was 383.7 ± 33.1 mg/dL. The plasma glucose levels ([1]; 0.067 mg kg^−1 oral once daily, Day 14) was 408.6 ± 19.6 mg/dL, the plasma glucose levels ([1]; 0.067 mg kg^−1 oral once daily, Day 21) was 431.0 ± 19.7 mg/dL and the “plasma glucose levels, Day 21 Δ” value ([1]; 0.067 mg kg^−1 oral once daily) was “+57.8 ± 41.7 mg dL^−1”. It also gave a plasma glucose levels ([1]; 0.2 mg kg^−1 oral once daily, Day 0) of 386.6 ± 28.2 mg/dL, a plasma glucose levels ([1]; 0.2 mg kg^−1 oral once daily, Day 7) of 321.8 ± 19.5 mg/dL and a plasma glucose levels ([1]; 0.2 mg kg^−1 oral once daily, Day 14) of 364.9 ± 13.1 mg/dL. For the same compound, the plasma glucose levels ([1]; 0.2 mg kg^−1 oral once daily, Day 21) was 403.2 ± 20.1 mg/dL, the “plasma glucose levels, Day 21 Δ” value ([1]; 0.2 mg kg^−1 oral once daily) was “+16.6 ± 36.6 mg dL^−1” and the plasma glucose levels ([1]; 0.67 mg kg^−1 oral once daily, Day 0, n = 10) was 384.4 ± 27.5 mg/dL. It also gave a plasma glucose levels ([1]; 0.67 mg kg^−1 oral once daily, Day 7) of 318.7 ± 32.0 mg/dL, a plasma glucose levels ([1]; 0.67 mg kg^−1 oral once daily, Day 14) of 353.4 ± 18.9 mg/dL and a plasma glucose levels ([1]; 0.67 mg kg^−1 oral once daily, Day 21, n = 9) of 374.2 ± 37.3 mg/dL. The “plasma glucose levels, Day 21 Δ” value ([1]; 0.67 mg kg^−1 oral once daily, n = 9) was “+5.4 ± 30.8^b mg dL^−1”, the plasma glucose levels ([1]; 2 mg kg^−1 oral once daily, Day 0) was 384.8 ± 16.5 mg/dL and the plasma glucose levels ([1]; 2 mg kg^−1 oral once daily, Day 7) was 287.4 ± 27.4 mg/dL. The plasma glucose levels ([1]; 2 mg kg^−1 oral once daily, Day 14) was 288.3 ± 17.1 mg/dL, the plasma glucose levels ([1]; 2 mg kg^−1 oral once daily, Day 21) was 325.4 ± 13.0 mg/dL and the “plasma glucose levels, Day 21 Δ” value ([1]; 2 mg kg^−1 oral once daily) was -59.4 ± 22.4 mg/dL. The “selectivity for human SGLT2 compared to human SGLT1” value [2] was 2400 fold, the body weight [3] was “cats lost weight throughout the study” and the “doses with undesired effects attributed to SGLT1 inhibition, multiple of doses producing the maximum pharmacodynamic effect” value ([4]; healthy cats) was 5 to 10 times. For the same compound, the “loose stools and/or diarrhea” value ([4]; healthy cats exposed to the higher quantities) was “dose-dependent increase in the severity of loose stools and/or diarrhea”, the “dose at which the maximum glucosuria was observed” value ([4]; healthy cats, gelatin capsules, urinary glucose excretion over 24 h after dosing) was “approximately 3 mg kg^−1” and the “non-fasting blood glucose concentration” value ([5]; 0.067 mg kg^−1 oral once a day, Day 0, mean ± SD) was 565.5 ± 75.9 mg/dL. For the same compound, the “non-fasting blood glucose concentration” value ([5]; 0.067 mg kg^−1 oral once a day, Day 1, 6 h post-dose, mean ± SD) was 526.0 ± 97.0 mg/dL, the “non-fasting blood glucose concentration” value ([5]; 0.067 mg kg^−1 oral once a day, Day 7, 6 h post-dose, mean ± SD) was 459.5 ± 69.9 mg/dL and the “non-fasting blood glucose concentration” value ([5]; 0.067 mg kg^−1 oral once a day, Day 14, 6 h post-dose, mean ± SD) was 441.7 ± 119.6 mg/dL. For the same compound, the “non-fasting blood glucose concentration” value ([5]; 0.067 mg kg^−1 oral once a day, Day 21, 6 h post-dose, mean ± SD) was 497.5 ± 98.8 mg/dL, the “non-fasting blood glucose concentration” value ([5]; 0.067 mg kg^−1 oral once a day, Day 28, 6 h post-dose, mean ± SD) was 472.1 ± 113.3 mg/dL and the “non-fasting blood glucose concentration” value ([5]; 0.067 mg kg^−1 oral once a day, Day −3, mean ± SD) was 563.6 ± 105.2 mg/dL. For the same compound, the “non-fasting blood glucose concentration” value ([5]; 0.2 mg kg^−1 oral once a day, Day 0, mean ± SD) was 590.0 ± 92.9 mg/dL, the “non-fasting blood glucose concentration” value ([5]; 0.2 mg kg^−1 oral once a day, Day 1, 6 h post-dose, mean ± SD) was 411.3 ± 86.8 mg/dL and the “non-fasting blood glucose concentration” value ([5]; 0.2 mg kg^−1 oral once a day, Day 7, 6 h post-dose, mean ± SD) was 390.8 ± 92.3 mg/dL. For the same compound, the “non-fasting blood glucose concentration” value ([5]; 0.2 mg kg^−1 oral once a day, Day 14, 6 h post-dose, mean ± SD) was 364.7 ± 121.6 mg/dL, the “non-fasting blood glucose concentration” value ([5]; 0.2 mg kg^−1 oral once a day, Day 21, 6 h post-dose, mean ± SD) was 379.8 ± 47.4 mg/dL and the “non-fasting blood glucose concentration” value ([5]; 0.2 mg kg^−1 oral once a day, Day 28, 6 h post-dose, mean ± SD) was 333.5 ± 79.9 mg/dL. The “non-fasting blood glucose concentration” value ([5]; 0.2 mg kg^−1 oral once a day, Day −3, mean ± SD) was 546.9 ± 92.8 mg/dL, the “non-fasting blood glucose concentration” value ([5]; 0.67 mg kg^−1 oral once a day, Day 0, mean ± SD) was 574.4 ± 90.5 mg/dL and the “non-fasting blood glucose concentration” value ([5]; 0.67 mg kg^−1 oral once a day, Day 1, 6 h post-dose, mean ± SD) was 404.3 ± 86.4 mg/dL. For the same compound, the “non-fasting blood glucose concentration” value ([5]; 0.67 mg kg^−1 oral once a day, Day 7, 6 h post-dose, mean ± SD) was 370.1 ± 96.5 mg/dL, the “non-fasting blood glucose concentration” value ([5]; 0.67 mg kg^−1 oral once a day, Day 14, 6 h post-dose, mean ± SD) was 379.6 ± 58.6 mg/dL and the “non-fasting blood glucose concentration” value ([5]; 0.67 mg kg^−1 oral once a day, Day 21, 6 h post-dose, mean ± SD) was 300.6 ± 97.6 mg/dL. The “non-fasting blood glucose concentration” value ([5]; 0.67 mg kg^−1 oral once a day, Day 28, 6 h post-dose, mean ± SD) was 306.7 ± 98.4 mg/dL, the “non-fasting blood glucose concentration” value ([5]; 0.67 mg kg^−1 oral once a day, Day −3, mean ± SD) was 565.5 ± 87.5 mg/dL and the “non-fasting blood glucose concentration” value ([5]; 2 mg kg^−1 oral once a day, Day 0, mean ± SD) was 541.6 ± 84.4 mg/dL. The “non-fasting blood glucose concentration” value ([5]; 2 mg kg^−1 oral once a day, Day 1, 6 h post-dose, mean ± SD) was 382.7 ± 111.9 mg/dL, the “non-fasting blood glucose concentration” value ([5]; 2 mg kg^−1 oral once a day, Day 7, 6 h post-dose, mean ± SD) was 330.8 ± 101.1 mg/dL and the “non-fasting blood glucose concentration” value ([5]; 2 mg kg^−1 oral once a day, Day 14, 6 h post-dose, mean ± SD) was 303.5 ± 74.0 mg/dL. The “non-fasting blood glucose concentration” value ([5]; 2 mg kg^−1 oral once a day, Day 21, 6 h post-dose, mean ± SD) was 319.7 ± 74.2 mg/dL, the “non-fasting blood glucose concentration” value ([5]; 2 mg kg^−1 oral once a day, Day 28, 6 h post-dose, mean ± SD) was 315.2 ± 81.3 mg/dL and the “non-fasting blood glucose concentration” value ([5]; 2 mg kg^−1 oral once a day, Day −3, mean ± SD) was 603.9 ± 88.9 mg/dL. For the same compound, the “blood glucose values, % of control” value ([5]; 28-day administration of 0.067 mg kg^−1) was 79.74%, the “blood glucose values, % of control” value ([5]; 28-day administration of 0.2 mg kg^−1) was 56.33% and the “blood glucose values, % of control” value ([5]; 28-day administration of 0.67 mg kg^−1) was 51.81%. For the same compound, the “blood glucose values, % of control” value ([5]; 28-day administration of 2 mg kg^−1) was 53.25% and the “blood glucose, level below which it was not reduced” value ([5]; sole agent, any dose group) was no less than 300 mg/dL.
